This passage reports IC50 and EC50 results from US12492186B2, “Bicyclic heterocyclic compounds useful as IRAK4 inhibitors” (BRISTOL-MYERS SQUIBB COMPANY, priority 2019, dated 2025).

For one assay, the target named is IRAK4 (Homo sapiens (Human), UniProt Q9NWZ3). Briefly: IRAK4 Inhibition Assay. The note with it: ATP 500 μM; IRAK4 0.6 nM; 60 min room temperature; Caliper LABCHIP 3000. The format is biochemical.
The subject of another assay is Human whole blood. Briefly: IRAK4 Whole Blood Assay (IL-6 levels after stimulation with TLR2 agonist lipoteichoic acid). It counts as cell-based. To be noted: 10 μg/mL lipoteichoic acid, 5 hours. A digest of the protocol: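 ACD-A anticoagulated human whole blood preincubated with compound 60 min at 37 °C, 5% CO2, then stimulated 5 h with lipoteichoic acid at 10 μg/mL final. IL-6 in supernatants measured by flow cytometry bead assay.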

Sequence of IRAK4 (Q9NWZ3 whole entry, species assumed): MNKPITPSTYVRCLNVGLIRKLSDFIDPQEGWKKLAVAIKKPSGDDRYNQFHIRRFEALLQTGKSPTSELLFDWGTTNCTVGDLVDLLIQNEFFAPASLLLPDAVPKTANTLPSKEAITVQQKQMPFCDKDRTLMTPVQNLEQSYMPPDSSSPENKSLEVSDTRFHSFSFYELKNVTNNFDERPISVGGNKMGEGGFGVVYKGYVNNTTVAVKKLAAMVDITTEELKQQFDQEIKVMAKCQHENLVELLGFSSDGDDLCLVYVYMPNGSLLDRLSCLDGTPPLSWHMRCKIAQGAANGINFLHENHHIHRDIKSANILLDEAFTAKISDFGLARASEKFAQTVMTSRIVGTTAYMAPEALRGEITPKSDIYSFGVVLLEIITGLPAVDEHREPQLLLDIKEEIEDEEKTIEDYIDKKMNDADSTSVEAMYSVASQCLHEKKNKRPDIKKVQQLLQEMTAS

As for `CC(C)Nc1c(C(=O)NCCC(F)F)cnc2ccc(-c3cn[nH]c3)cc12` [Example 45, N-(3,3-difluoropropyl)-4-(isopropylamino)-6-(1H-pyrazol-4-yl)quinoline-3-carboxamide], the IC50 at IRAK4 is 0.0091 µM. In the assay with Human whole blood, this compound yielded an EC50 of 0.35 µM.

With `CC(C)Nc1c(C(=O)NCCC(C)(C)N)cnc2ccc(-c3cn[nH]c3)nc12` [Example 150, N-(3-amino-3-methylbutyl)-4-(isopropylamino)-6-(1H-pyrazol-4-yl)-1,5-naphthyridine-3-carboxamide], the IC50 on IRAK4 stood at 0.0054 µM. The compound further showed an EC50 in the assay with Human whole blood of 0.153 µM.

For `CC(C)Nc1c(C(=O)NC2CCN(C(=O)C3CC3)CC2)cnc2ccc(-c3cn[nH]c3)cc12` [Example 81, N-(1-(cyclopropanecarbonyl)piperidin-4-yl)-4-(isopropylamino)-6-(1H-pyrazol-4-yl)quinoline-3-carboxamide], the IC50 at IRAK4 stood at 0.0117 µM. It took 1.4 µM to reach a half-maximal effect in the assay with Human whole blood (EC50).

With `CC(C)Nc1c(C(=O)N[C@H]2CC[C@H](n3ccnn3)CC2)cnc2ccc(-c3cn[nH]c3)cc12` [Example 101, N-((1r,4r)-4-(1H-1,2,3-triazol-1-yl)cyclohexyl)-4-(isopropylamino)-6-(1H-pyrazol-4-yl)quinoline-3-carboxamide], the IC50 at IRAK4 worked out at 0.0041 µM. The compound also had an EC50 in the assay with Human whole blood of 0.447 µM.

With `CC(C)Nc1c(C(=O)N[C@H]2C[C@H](O)C2)cnc2ccc(-c3cn[nH]c3)nc12` [Example 143, N-((1r,3r)-3-hydroxycyclobutyl)-4-(isopropylamino)-6-(1H-pyrazol-4-yl)-1,5-naphthyridine-3-carboxamide], at IRAK4, the IC50 came out at 0.0072 µM. Moreover, the EC50 in the assay on Human whole blood was 1.38 µM.

In the case of `CC(C)Nc1c(C(=O)NCCC(F)(F)F)cnc2ccc(-c3cn[nH]c3)nc12` [Example 142, 4-(isopropylamino)-6-(1H-pyrazol-4-yl)-N-(3,3,3-trifluoropropyl)-1,5-naphthyridine-3-carboxamide], the IC50 on IRAK4 is 0.0064 µM. Moreover, the EC50 with Human whole blood was determined as 0.138 µM.

Consider `CC1(Nc2c(C(=O)NC[C@@H](F)C(C)(C)O)cnc3ccc(-c4cn[nH]c4)cc23)CC1` [Example 121, (R)—N-(2-fluoro-3-hydroxy-3-methylbutyl)-4-((1-methylcyclopropyl)amino)-6-(1H-pyrazol-4-yl)quinoline-3-carboxamide], for which the IC50 at IRAK4 was 0.0027 µM. Also, in the assay with Human whole blood, a half-maximal response (EC50) required 0.686 µM.

On to `CC(=O)N1CCC(n2cc(-c3cnc4ccc(-c5cn[nH]c5)cc4c3NC(C)C)nn2)CC1` [Example 135, 1-(4-(4-(4-(isopropylamino)-6-(1H-pyrazol-4-yl)quinolin-3-yl)-1H-1,2,3-triazol-1-yl)piperidin-1-yl)ethan-1-one], for which the IC50 on IRAK4 is 0.0031 µM. In the assay on Human whole blood, this compound gave an EC50 of 0.603 µM.

On to `CC(C)Nc1c(C(=O)NCCc2ccncc2)cnc2ccc(-c3cn[nH]c3)cc12` [Example 109, 4-(isopropylamino)-6-(1H-pyrazol-4-yl)-N-(2-(pyridin-4-yl)ethyl)quinoline-3-carboxamide], for which, at IRAK4, the IC50 was 0.0044 µM. In addition, the midpoint of the response in the assay with Human whole blood, the EC50, lay at 2.37 µM.

For the compound `CC(C)Nc1c(C(=O)N[C@H]2CC[C@H](O)CC2)cnc2ccc(-c3cn[nH]c3)cc12` [Example 11, N-((1r,4r)-4-hydroxycyclohexyl)-4-(isopropylamino)-6-(1H-pyrazol-4-yl)quinoline-3-carboxamide], the IC50 on IRAK4 worked out at 0.0095 µM. Also, in the assay on Human whole blood, it took 1.67 µM to reach a half-maximal effect (EC50).

Take `COC(=O)N[C@H]1C[C@H](NC(=O)c2cnc3ccc(-c4cn[nH]c4)cc3c2NC(C)C)C1` [Example 47, methyl ((1r,3r)-3-(4-(isopropylamino)-6-(1H-pyrazol-4-yl)quinoline-3-carboxamido)cyclobutyl)carbamate]: the IC50 at IRAK4 stood at 0.0091 µM. Besides, in the assay with Human whole blood, the midpoint of the response, the EC50, lay at 0.868 µM.

`CC(C)Nc1c(C(=O)NC[C@@H](F)C(C)(C)O)cnc2ccc(-c3cn[nH]c3)cc12` [Example 1, (R)—N-(2-fluoro-3-hydroxy-3-methylbutyl)-4-(isopropylamino)-6-(1H-pyrazol-4-yl) quinoline-3-carboxamide]: the IC50 at IRAK4 was 0.0026 µM. The response in the assay with Human whole blood was half-maximal at 0.501 µM (EC50).
